Like-named read-outs stand apart in the source and are kept apart here.
Assays:
Phytophthora infestans = type: in vivo; settings: preventative foliar spray, tomato; for % Disease Area, Photon Imaging: chlorophyll fluorescence; for % Disease Area, Visual Scoring: scored by eye
[1] = system: Erysiphe graminis f sp. hordei; assay: Preventative control of powdery mildew on barley, % disease area by visual scoring and by photon imaging (fluorescein diacetate fluorescence); type: in vivo; settings: preventative foliar spray; for % Disease Area, Photon Imaging: FDA fluorescence; for % Disease Area, Visual Scoring: scored by eye
Experimental: Barley plants (Hordeum vulgari, cv. Boone) are cultivated either as single or multiple plants per plant growth unit, typically in a 2.54 cm by 2.54 cm pot of soil. Plants are grown in an environmentally regulated growth chamber at 20° C. and 70% humidity. The plants are approximately 7 days old at the time of application of the plant treatment agent. Single plant units are sprayed with fungicide standards or experimental plant treatment agents to the point of run-off.
Twenty-four hours following application of the plant treatment agent the barley plants are subsequently inoculated with spores of a fungal plant pathogen and incubated under the appropriate conditions for a period sufficient to allow the development of visible disease symptoms.
Inoculation with powdery mildew is with a spore suspension of Erysiphe graminis f. sp. hoerdei, (the causal agent of barley powdery mildew). Powdery mildew-inoculated plants are placed in a dry area for 4 hours following inoculation and are subsequently grown for an additional seven days at 20° C. and 65% humidity. Powdery mildew-infected plants are 15 days old at the time of rating of disease.
For the determination of the % disease area for a sample, a binary image is generated which defined the area of pixels associated with a LGM for each object in the field of view. The percent disease area is calculated by dividing the pixel number for the LGM area by the pixel number for the sample area. For the detection of a LGM endogenous to the plant substrate, an additional step of subtracting the fluorescence area from the total leaf area and then dividing by the total leaf area is required for the percent disease area calculation.
The effectiveness of a plant treatment agent on plants infected with a disease organism is determined by treating the test unit with a pro-LGM and detecting photon emission. Barley plants cultivated as described above are given 125 μL spray applications of a preventative treatment containing 40, 5, 1, 0.4 and 0.2 ppm flusilazole. The plant treatment agent is formulated by resuspending the appropriate amount of the dried compound in 6 μL of DMSO with shaking overnight, followed by the subsequent addition of 570 μL of a 50/50 Acetone/Water-Trem solution, yielding the desired final concentration. The Water-Trem contains 18 drops of the Trem® 014 surfactant (Henkel Corp, Amber, Pa.) per L of water. The formulated plant treatment agent is applied as a foliar spray application. In this example, a microsprayer apparatus (U.S. Patent Application No. 60/172,928) applying a fine aerosol mist from the tip of an ultrasonic nebulizer, with air assist, to a rotating electrostatically charged perpendicular plant target is employed.
Twenty-four hours following application of the plant treatment agent the barley plants are subsequently inoculated with a suspension of powdery mildew (Erysiphe graminis f sp. hordei) spores, and incubated under the appropriate conditions for a period sufficient to allow the development of visible disease symptoms, as described above. Untreated plants are also infected at this time for the production of untreated, infected controls. Untreated, uninfected control plants are also generated in parallel.
Plants to be rated for fungicide activity are first scored visually by eye for % disease coverage. The same samples are subsequently treated with the pro-LGM fluorescein diacetate. The FDA is formulated in a stock solution at 1 mg FDA/mL acetone. A final working solution is formulated which contains 5 μg/mL fluorescein diacetate and 0.005% Trem® 014. The FDA working solution is applied by spraying the sample using a Preval® sprayer (Precision Valve Corporation, Yonkers, N.Y.) with sufficient solution to wet all surfaces. Care must be taken not to allow access of FDA to leaves with cuts or abraded surfaces. […]

Magnaportha grisea = settings: 5 ppm, systemic application to media prior to seeding, Eragrostis curvula, M. grisea strain expressing a FP

COCC(=O)N(c1c(C)cccc1C)C(C)C(=O)OC (centres unmarked) [Ridomil]
% Disease Area, Photon Imaging (Phytophthora infestans; 1 ppm): 60%
% Disease Area, Visual Scoring (Phytophthora infestans; 1 ppm): 53%
% Disease Area, Photon Imaging (Phytophthora infestans; 5 ppm): 10%
% Disease Area, Visual Scoring (Phytophthora infestans; 5 ppm): 24%
% Disease Area, Photon Imaging (Phytophthora infestans; 20 ppm): 2%
% Disease Area, Visual Scoring (Phytophthora infestans; 20 ppm): 3%

C[Si](Cn1cncn1)(c1ccc(F)cc1)c1ccc(F)cc1 [flusilazole]
% Disease Area, Photon Imaging ([1]; 0.2 ppm): 64%
% Disease Area, Visual Scoring ([1]; 0.2 ppm): 52%
% Disease Area, Photon Imaging ([1]; 0.4 ppm): 27%
% Disease Area, Visual Scoring ([1]; 0.4 ppm): 19%
% Disease Area, Photon Imaging ([1]; 1 ppm): 24%
% Disease Area, Visual Scoring ([1]; 1 ppm): 7%
% Disease Area, Photon Imaging ([1]; 5 ppm): 13%
% Disease Area, Visual Scoring ([1]; 5 ppm): 1%
% Disease Area, Photon Imaging ([1]; 40 ppm): 0%
% Disease Area, Visual Scoring ([1]; 40 ppm): 0%

Cc1cccc2sc3nncn3c12 [tricyclazole]
FP fluorescence relative to untreated, inoculated control (Magnaportha grisea): reduced fluorescence

Reference: patent publication US20040033555A1 (priority 2003, published 2004)
